Reference: ChEMBL document CHEMBL5321275, “Discovery, Optimization, and Evaluation of Novel N-(Benzimidazol-5-yl)-1,3,4-thiadiazol-2-amine Analogues as Potent STAT3 Inhibitors for Cancer Treatment” (J Med Chem, 2023)
Active and inactive are the calls of the source. The rule behind the calls is not given here.

Columns and labels:
MDA-MB-231 [1] = experiment: Induction of apoptosis in human MDA-MB-231 cells measured after 48 hrs by annexin V-FITC and PI staining based flow cytometry analysis; type: functional, cell-based; settings: dose <= 10.0 µM
[2] = Inhibition of IL-6/JAK/STAT3 signalling pathway in HEK-Blue IL-6 cells incubated for 16 hrs by QUANTI-blue assay; type: cell-based; settings: Homo sapiens, HEK-Blue IL-6, 16 h
[3] = AUC (0 to infinity) in ICR mouse at 50 mg/kg, po measured upto 96 hrs by HPLC-MS/MS analysis; type: ADME, organism-based; set-up: time < 96 hrs, dose 50 mg/kg, route po; settings: in vivo
[4] = biological target: T1, Signal transducer and activator of transcription 3 (Homo sapiens, UniProt P40763); experiment: Inhibition of STAT3 nuclear translocation in human DU-145 cells at 5 uM measured after 24 hrs by immunofluorescence assay; type: cell-based
[5] = Toxicity in Balb/c mouse assessed as effect on kidney at 50 mg/kg by hematoxylin and eosin staining based histopathological analysis; type: organism-based; settings: in vivo
DU-145 [6] = experiment: Induction of apoptosis in human DU-145 cells assessed as late apoptotic cells at 1 uM measured after 48 hrs by annexin V-FITC and PI staining based flow cytometry analysis (reference value: 2.0%); type: functional
MDA-MB-231 [7] = experiment: Induction of apoptosis in human MDA-MB-231 cells assessed as early apoptotic cells at 5 uM measured after 48 hrs by annexin V-FITC and PI staining based flow cytometry analysis (reference value: 6.7%); type: functional
MDA-MB-231 [8] = experiment: Induction of apoptosis in human MDA-MB-231 cells assessed as early apoptotic cells at 10 uM measured after 48 hrs by annexin V-FITC and PI staining based flow cytometry analysis (reference value: 6.7%); type: functional
[9] = MRT (0 to infinity) in ICR mouse at 50 mg/kg, po measured upto 96 hrs by HPLC-MS/MS analysis; type: ADME, organism-based; settings: in vivo
[10] = Toxicity in Balb/c mouse assessed as effect on heart at 50 mg/kg by hematoxylin and eosin staining based histopathological analysis; type: organism-based; settings: in vivo
[11] = biological target: T1, Signal transducer and activator of transcription 3; experiment: Binding affinity to STAT3 (unknown origin) assessed as conformational change in STAT3 protein measured after 1 hr by circular dichroism method
DU-145 [12] = experiment: Antitumor activity against human DU-145 cells xenografted in Balb/c nude mouse model assessed as reduction in phosphorylated STAT3 at Y705 residue by immunoblotting analysis; type: functional, cell-based
DU-145 [13] = experiment: Induction of cell cycle arrest in human DU-145 cells assessed as accumulation of cells at G0/G1 phase measured after 24 hrs by PI staining based flow cytometry analysis; type: functional; settings: dose <= 10.0 µM
DU-145 [14] = experiment: Induction of apoptosis in human DU-145 cells assessed as early apoptotic cells at 5 uM measured after 48 hrs by annexin V-FITC and PI staining based flow cytometry analysis (reference value: 2.5%); type: functional

T1 sequence (P40763 whole entry): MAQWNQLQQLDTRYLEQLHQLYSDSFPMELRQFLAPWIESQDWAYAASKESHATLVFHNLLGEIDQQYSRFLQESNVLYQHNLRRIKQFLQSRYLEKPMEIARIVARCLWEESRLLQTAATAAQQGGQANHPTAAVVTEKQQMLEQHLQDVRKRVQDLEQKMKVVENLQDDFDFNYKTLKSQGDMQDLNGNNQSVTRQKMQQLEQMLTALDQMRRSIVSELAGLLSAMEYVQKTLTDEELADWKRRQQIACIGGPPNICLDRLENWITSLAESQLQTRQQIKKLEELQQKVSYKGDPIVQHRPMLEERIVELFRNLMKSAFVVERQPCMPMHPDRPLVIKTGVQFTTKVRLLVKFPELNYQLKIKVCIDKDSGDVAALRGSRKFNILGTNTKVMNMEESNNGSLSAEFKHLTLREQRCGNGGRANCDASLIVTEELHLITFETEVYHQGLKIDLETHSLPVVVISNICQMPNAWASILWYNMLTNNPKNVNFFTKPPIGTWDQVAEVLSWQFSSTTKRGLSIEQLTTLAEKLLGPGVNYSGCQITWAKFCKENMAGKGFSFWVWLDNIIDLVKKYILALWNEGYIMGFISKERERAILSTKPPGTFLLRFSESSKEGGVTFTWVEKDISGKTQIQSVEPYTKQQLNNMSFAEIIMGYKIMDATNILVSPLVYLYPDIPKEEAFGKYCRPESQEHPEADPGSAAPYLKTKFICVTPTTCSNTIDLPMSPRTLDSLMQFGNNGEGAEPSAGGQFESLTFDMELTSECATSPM

IC50 [2]: 650 nM | AUC(0-inf) [3]: 17800 ng·h/mL | inhibition [4]: Active | MRT inf [9]: 17.3 h | Activity [11]: Active
Structure (SMILES): CN1CCN(c2cc3c(cc2Nc2nnc(-c4ccc(C(F)(F)F)cc4)s2)nc(-c2ccc(F)cc2)n3C2CC2)CC1
Activity (MDA-MB-231 [1]): Dose-Dependent Effect | Activity [5]: Non-Toxic | Activity (DU-145 [6]): 2.4% | Activity (MDA-MB-231 [7]): 12.1% | Activity (MDA-MB-231 [8]): 59.2% | Activity [10]: Non-Toxic | Activity (DU-145 [12]): Active | Activity (DU-145 [13]): Dose-Dependent Effect | Activity (DU-145 [14]): 6.9%
